Literature values as cited in patent publication US20130108701A1, “Solid Dosage Forms of Antipsychotics” (priority 2010, published 2013).
Counter-ions that a name gives are not always drawn.

Legend:
[1] = not given; remark: listed apart in the source

aqueous solubility: relatively poor
permeability [1]: high
Compound: O=C1Cc2cc(CCN3CCN(c4nsc5ccccc45)CC3)c(Cl)cc2N1 [Ziprasidone hydrochloride, 5-[2-[4-(1,2-benzisothiazol-3-yl)-1-piperazinyl]ethyl]-6-chloro-1,3-dihydro-2H-indol-2-one]
